# According to paper PMC12696368, “Ancestral Chaperonins Provide the First Structural Glimpse into Early Multimeric Protein Evolution” (Molecular Biology and Evolution, 2025):
# Key:
# Test in all cases: phosphate release (BIOMOL GREEN), […]-60 °C
# Assay type in all cases: biochemical
# Settings in all cases: 0.5 mM ATP, 5 mM MgCl2, 150 mM KCl, 50 mM HEPES pH 7.4
# AFCB = molecular target: T1, AFCB (synthetic construct, UniProt Z9BU06U866)
# T1 construct: ancestral reconstruction, C-terminal His-tag, expressed in E. coli BL21 (DE3); 7-subunit double rings
# ACIII = molecular target: T2, ACIII (synthetic construct, UniProt Z9ZN04QL74)
# T2 construct: ancestral reconstruction, C-terminal His-tag, expressed in E. coli BL21 (DE3); eight-subunit double rings
# T2 sequence (Z9ZN04QL74 1-518): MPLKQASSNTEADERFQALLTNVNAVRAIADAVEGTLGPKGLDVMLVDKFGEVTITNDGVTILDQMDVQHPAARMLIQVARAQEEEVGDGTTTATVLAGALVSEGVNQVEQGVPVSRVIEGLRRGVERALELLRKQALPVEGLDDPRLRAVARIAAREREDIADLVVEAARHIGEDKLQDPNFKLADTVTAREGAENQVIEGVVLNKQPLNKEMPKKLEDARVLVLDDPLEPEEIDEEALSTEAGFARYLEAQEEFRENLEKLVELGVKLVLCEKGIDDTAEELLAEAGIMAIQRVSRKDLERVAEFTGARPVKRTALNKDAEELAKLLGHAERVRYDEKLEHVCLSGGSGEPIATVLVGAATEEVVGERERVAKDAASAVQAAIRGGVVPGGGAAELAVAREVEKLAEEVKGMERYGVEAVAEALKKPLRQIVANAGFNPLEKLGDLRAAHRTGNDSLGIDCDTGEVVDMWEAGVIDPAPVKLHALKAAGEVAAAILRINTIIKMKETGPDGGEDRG
# ACI = molecular target: T3, ACI (synthetic construct, UniProt Z9T0T8YL69)
# T3 construct: ancestral reconstruction, C-terminal His-tag, expressed in E. coli BL21 (DE3); single heptameric ring
# E. coli GroEL = molecular target: T4, E. coli GroEL (Escherichia coli, UniProt P0A6F5)
# T4 construct: recombinant, expressed and purified as the ancestral proteins (C-terminal His-tag, E. coli BL21 (DE3)); no GroES; double ring of two seven-subunit rings
# T4 sequence (P0A6F5 2-548): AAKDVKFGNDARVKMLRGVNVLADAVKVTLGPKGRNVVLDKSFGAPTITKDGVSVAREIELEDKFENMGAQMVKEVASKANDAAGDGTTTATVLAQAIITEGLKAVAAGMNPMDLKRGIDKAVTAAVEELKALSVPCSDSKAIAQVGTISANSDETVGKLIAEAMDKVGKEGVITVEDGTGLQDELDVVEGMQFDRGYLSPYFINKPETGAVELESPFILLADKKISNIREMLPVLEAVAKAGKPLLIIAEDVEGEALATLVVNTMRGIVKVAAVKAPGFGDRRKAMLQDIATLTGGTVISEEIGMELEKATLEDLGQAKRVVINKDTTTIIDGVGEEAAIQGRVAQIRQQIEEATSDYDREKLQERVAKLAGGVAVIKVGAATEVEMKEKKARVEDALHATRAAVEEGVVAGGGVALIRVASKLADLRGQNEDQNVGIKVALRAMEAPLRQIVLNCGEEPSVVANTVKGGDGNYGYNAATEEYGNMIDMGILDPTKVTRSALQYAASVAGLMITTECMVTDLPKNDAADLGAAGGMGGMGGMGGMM
smiles,measurement,setting,value
Nc1ncnc2c1ncn2[C@@H]1O[C@H](COP(=O)(O)OP(=O)(O)OP(=O)(O)O)[C@@H](O)[C@H]1O [ATP],"phosphate release (BIOMOL GREEN), 30-60 °C",AFCB,"showed the highest rate of ATP hydrolysis, followed by AFCB"
same,"phosphate release (BIOMOL GREEN), 30-60 °C",ACIII,"E. coli GroEL, ACI and ACIII exhibited similar hydrolysis patterns"
same,"phosphate release (BIOMOL GREEN), 30-60 °C",ACI,"E. coli GroEL, ACI and ACIII exhibited similar hydrolysis patterns"
same,"phosphate release (BIOMOL GREEN), 30-60 °C",E. coli GroEL,"E. coli GroEL, ACI and ACIII exhibited similar hydrolysis patterns"
